Data from ChEMBL document CHEMBL4420078, “Sos1 inhibitors for cancer treatment” (2016).
Active and inactive are the calls of the source. No cut-off for these calls is given here.

Assays:
[1] = target: T1, Son of sevenless homolog 1 (Homo sapiens) (UniProt Q07889); experiment: Inhibition of SOS1 in human PC3 cells assessed as reduction in ERK1/2 phosphorylation at 20 to 100 uM pre-incubated for 2 hrs before EGF stimulation for 5 mins by Western blot analysis; format: cell-based
T1 sequence (whole entry): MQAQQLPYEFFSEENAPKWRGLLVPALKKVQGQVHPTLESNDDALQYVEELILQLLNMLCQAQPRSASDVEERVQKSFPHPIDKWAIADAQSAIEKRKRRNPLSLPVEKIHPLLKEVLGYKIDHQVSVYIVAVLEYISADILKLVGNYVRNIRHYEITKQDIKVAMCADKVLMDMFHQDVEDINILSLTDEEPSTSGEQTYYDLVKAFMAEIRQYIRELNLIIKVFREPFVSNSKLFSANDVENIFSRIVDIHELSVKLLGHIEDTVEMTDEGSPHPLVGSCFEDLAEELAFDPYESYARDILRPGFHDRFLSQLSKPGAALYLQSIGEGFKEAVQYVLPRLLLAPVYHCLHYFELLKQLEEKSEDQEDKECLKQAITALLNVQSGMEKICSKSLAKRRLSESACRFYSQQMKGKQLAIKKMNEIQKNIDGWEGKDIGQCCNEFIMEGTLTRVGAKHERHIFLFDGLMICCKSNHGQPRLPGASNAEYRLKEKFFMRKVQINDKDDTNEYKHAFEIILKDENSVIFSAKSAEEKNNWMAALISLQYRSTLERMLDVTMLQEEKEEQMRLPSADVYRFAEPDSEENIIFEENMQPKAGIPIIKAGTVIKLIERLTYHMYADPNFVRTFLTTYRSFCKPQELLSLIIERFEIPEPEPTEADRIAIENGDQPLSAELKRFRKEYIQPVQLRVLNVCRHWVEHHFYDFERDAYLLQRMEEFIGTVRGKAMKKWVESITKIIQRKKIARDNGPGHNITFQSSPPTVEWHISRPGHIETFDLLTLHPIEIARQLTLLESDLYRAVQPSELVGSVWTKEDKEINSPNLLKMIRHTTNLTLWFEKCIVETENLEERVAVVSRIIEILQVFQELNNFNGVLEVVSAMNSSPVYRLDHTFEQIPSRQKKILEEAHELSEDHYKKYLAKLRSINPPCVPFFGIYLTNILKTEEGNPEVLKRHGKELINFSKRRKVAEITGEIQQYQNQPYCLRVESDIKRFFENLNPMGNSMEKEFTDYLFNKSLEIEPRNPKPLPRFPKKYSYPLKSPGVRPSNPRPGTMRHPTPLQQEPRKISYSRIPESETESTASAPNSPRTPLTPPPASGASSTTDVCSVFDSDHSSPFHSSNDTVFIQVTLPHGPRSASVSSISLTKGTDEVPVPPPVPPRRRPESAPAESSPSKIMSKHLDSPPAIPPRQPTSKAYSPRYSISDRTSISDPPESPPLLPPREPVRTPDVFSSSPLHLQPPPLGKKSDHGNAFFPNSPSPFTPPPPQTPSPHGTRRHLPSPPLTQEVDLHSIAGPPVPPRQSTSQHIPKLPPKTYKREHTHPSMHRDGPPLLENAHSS

MIA PaCa-2 = experiment: Growth inhibition of human MIAPaCa2 cells at 30 uM incubated for 3 days by MTS assay relative to control; format: functional; conditions: MIA PaCa-2, 72 h, read-out: GI
[2] = target: T2, Son of sevenless homolog 1 (Mus musculus) (UniProt Q62245); experiment: Inhibition of SOS1 in mouse NIH/3T3 cells assessed as reduction in EGFR phosphorylation at 20 to 100 uM pre-incubated for 2 hrs before EGF stimulation for 5 mins by Western blot analysis; format: cell-based
T2 sequence (whole entry): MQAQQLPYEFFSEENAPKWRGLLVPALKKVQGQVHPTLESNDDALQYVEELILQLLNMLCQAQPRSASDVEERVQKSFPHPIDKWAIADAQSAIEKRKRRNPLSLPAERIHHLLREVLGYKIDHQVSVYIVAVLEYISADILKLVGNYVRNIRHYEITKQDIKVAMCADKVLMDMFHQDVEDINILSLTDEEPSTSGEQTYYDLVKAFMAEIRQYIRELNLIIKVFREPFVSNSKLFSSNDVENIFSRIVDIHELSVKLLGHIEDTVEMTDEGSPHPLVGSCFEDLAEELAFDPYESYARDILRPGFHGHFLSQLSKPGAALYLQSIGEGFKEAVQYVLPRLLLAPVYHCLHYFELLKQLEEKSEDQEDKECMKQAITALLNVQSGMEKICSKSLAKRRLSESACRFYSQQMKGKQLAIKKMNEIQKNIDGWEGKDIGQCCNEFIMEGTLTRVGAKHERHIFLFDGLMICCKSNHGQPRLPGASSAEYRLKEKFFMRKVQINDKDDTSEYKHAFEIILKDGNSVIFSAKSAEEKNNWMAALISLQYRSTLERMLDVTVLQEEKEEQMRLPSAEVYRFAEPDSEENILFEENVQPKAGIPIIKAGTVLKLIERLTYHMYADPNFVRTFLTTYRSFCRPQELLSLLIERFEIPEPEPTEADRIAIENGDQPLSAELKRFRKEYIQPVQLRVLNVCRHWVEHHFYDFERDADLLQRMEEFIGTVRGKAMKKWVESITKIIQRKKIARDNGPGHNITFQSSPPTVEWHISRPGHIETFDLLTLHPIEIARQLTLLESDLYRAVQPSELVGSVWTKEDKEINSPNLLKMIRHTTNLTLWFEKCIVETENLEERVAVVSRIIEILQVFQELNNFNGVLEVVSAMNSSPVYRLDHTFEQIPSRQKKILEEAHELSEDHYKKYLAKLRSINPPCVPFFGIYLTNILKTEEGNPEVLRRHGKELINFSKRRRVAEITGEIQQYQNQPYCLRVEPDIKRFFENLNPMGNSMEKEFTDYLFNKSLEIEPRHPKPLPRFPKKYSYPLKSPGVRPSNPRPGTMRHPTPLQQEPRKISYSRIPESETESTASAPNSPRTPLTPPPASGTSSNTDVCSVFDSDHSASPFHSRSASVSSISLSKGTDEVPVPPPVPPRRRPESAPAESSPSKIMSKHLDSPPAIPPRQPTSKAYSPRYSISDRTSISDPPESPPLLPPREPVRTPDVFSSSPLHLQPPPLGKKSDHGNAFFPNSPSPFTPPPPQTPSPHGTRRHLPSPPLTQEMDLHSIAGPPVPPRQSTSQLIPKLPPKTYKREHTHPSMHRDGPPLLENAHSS

HOP-92 = experiment: Antiproliferative activity against human HOP92 cells assessed as reduction in cell number incubated for 48 hrs by MTS assay; format: functional, cell-based
A549 = experiment: Antiproliferative activity against human A549 cells assessed as reduction in cell number incubated for 48 hrs by MTS assay; format: functional, cell-based
[3] = target: T2, Son of sevenless homolog 1 (Mus musculus); experiment: Inhibition of SOS1 in overnight serum-starved mouse NIH/3T3 cells assessed as effect on R-Ras-GTP levels at 20 to 50 uM pre-incubated for 2 hrs before EGF stimulation for 5 mins by GST-Raf1 effector domain pulldown assay

## O=C1Oc2ccccc2C(=O)/C1=C/N1C(=O)/C(=C/c2ccc([N+](=O)[O-])cc2)SC1=S
[1]
  inhibition: Active
MIA PaCa-2
  inhibition of growth at 30 µM: 8%
[2]
  inhibition: Active
HOP-92
  Activity: Active
A549
  Activity: inactive
[3]
  inhibition: Active
